Assay results from patent US12655142B2 (Merck Patent GmbH, priority 2019, dated 2026).

Assays:
c-Kit(V654A) = target: T1, c-Kit(V654A) (Homo sapiens, UniProt P10721, V654A); assay: c-Kit(V654A) assay (33P-ATP filter binding kinase assay); type: biochemical; conditions: recombinant human c-Kit aa 544-end V654A, ATP 200 μM
T1 construct: recombinant human c-Kit, amino acids 544-end containing the V654A mutation; GST (N)
In short: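 Radiometric filter-binding read-out: substrate 33P incorporation counted by scintillation after P30 filtermat washes in 75 mM phosphoric acid and methanol. Enzyme: N-GST recombinant human c-Kit aa 544-end carrying V654A.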

[1] = target: T2, GIST430/654 cell line expressing mutated constitutively active cKIT receptor tyrosine kinase (Δ560-576 deletion and V654A point mutation) (Homo sapiens, UniProt P10721, DEL560-576/V654A); assay: Cellular cKIT autophosphorylation (phospho-Y307-cKIT, Luminex bead assay) in GIST430/654 cells; type: cell-based; conditions: compounds 45 min, read-out: GIST 430/654 IC50
T2 construct: endogenous in cells; host or cells: GIST430/654 cells
T2 sequence (P10721 with tags, fused parts or gaps DEL560-576/V654A): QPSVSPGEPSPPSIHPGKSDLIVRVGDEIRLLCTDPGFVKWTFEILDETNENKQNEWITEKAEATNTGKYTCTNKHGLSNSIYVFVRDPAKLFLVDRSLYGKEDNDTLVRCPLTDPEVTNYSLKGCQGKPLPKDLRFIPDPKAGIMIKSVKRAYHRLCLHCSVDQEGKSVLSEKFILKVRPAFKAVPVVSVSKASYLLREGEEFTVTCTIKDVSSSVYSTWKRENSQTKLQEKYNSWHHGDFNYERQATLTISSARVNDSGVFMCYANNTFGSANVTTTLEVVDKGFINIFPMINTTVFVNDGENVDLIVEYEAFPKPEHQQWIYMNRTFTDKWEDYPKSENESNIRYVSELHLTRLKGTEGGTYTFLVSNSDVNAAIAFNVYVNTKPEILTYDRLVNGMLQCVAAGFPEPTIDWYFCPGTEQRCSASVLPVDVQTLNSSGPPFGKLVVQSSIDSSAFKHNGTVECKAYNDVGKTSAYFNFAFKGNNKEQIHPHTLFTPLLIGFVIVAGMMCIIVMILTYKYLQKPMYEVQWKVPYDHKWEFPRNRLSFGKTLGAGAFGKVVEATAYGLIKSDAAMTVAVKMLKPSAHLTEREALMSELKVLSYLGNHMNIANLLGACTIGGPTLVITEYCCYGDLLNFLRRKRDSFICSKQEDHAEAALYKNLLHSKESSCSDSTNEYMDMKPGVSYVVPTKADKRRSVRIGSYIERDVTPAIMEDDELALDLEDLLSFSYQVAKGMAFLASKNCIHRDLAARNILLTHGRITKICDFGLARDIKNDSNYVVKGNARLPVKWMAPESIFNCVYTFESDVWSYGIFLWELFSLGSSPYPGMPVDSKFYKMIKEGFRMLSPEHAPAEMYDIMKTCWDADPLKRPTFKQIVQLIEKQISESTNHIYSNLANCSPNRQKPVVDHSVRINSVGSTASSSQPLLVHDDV
In short: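 Phospho-Y307 cKIT in lysates was measured on a Luminex bead assay, with total-cKIT capture overnight at 4 °C and phosphospecific plus PE secondary detection. Cells had 45 min exposure to a compound dilution series the day after plating: GIST430 (Δ560-576) or GIST430/654 (Δ560-576/V654A, grown with 100 nM imatinib). IC50 values are relative to 0.3% DMSO-treated cells.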

[2] = Determination of solubility; conditions: 20 mM Sorensen phosphate buffer, pH 7.4, aqueous buffer, kinetic from dmso stock
Method: In a 96 well filtration plate, 2 μL of a 10 mM solution of the test compound in DMSO is added to 98 μL of 20 mM Sorensen phosphate buffer with pH 7.4. The mixture is incubated at room temperature for 120 min while agitating at 250 rpm followed by centrifugation at 2500 rpm for 3 min. After dilution by a factor of 2, the concentration of the test compound is determined using HPLC/UPLC with detection at a suitable wavelength and by comparison to a corresponding compound standard.

[3] = Determination of Efflux-Ratio (ER) in Caco-2 cells; conditions: human, Caco-2, pH 7.4
[4] = target: T3, GIST430 cell line expressing constitutive active cKIT receptor tyrosine kinase (Δ560-576 deletion) (Homo sapiens, UniProt P10721, DEL560-576); assay: Cellular cKIT autophosphorylation (phospho-Y307-cKIT, Luminex bead assay) in GIST430 cells; type: cell-based; conditions: cKIT autophosphorylation, GIST430 cells, compounds 45 min; read-out: GIST 430 IC50
T3 construct: endogenous in cells; host or cells: GIST430 cells
T3 sequence (P10721 with tags, fused parts or gaps DEL560-576): as the sequence (P10721 with tags, fused parts or gaps DEL560-576/V654A) above, with A612V counted along it
Method: Assay Principle for Cellular Testing of cKIT Mutant Inhibitors
The GIST430 cell line expressing constitutive active cKIT receptor tyrosine kinase (Δ560-576 deletion) and the Imatinib resistant GIST430/654 cell line expressing mutated constitutively active cKIT receptor tyrosine kinase (Δ560-576 deletion and V654A point mutation) were employed for assessing cellular potency of compounds. Cellular activity of mutant cKIT was determined by the degree of cKIT autophosphorylation at tyrosine 307 using a Luminex-based bead assay. GIST430 cells were plated with 22,000 cells per well of a 96-well plate in 100 μl medium (85% IMDM/15% FCS) and GIST430/654 cells were plated with 25,000 cells per well of a 96-well plate in 100 μl medium (85% IMDM/15% FCS supplemented with 100 nM Imatinib). At the following day compounds were added in a serial dilution for 45 min. Then, cells were lysed with 90 μl lysis buffer (20 mM Hepes pH 7.5, 200 mM NaCl, 1.5 mM MgCl2×6H2O, 0.4 mM EDTA, 1% Triton-X-100, 1% Phosphatase-Inhibitor II, 20 mM β-Glycerolphosphat, 0.1% Protease-Inhibitor Cocktail III, 0.01% Benzonase) and lysates were cleared by centrifugation through a 96-well filter plate (0.65 μm). Samples were incubated with Luminex-beads which were coupled with an anti-total cKIT antibody overnight at 4° C. under gentle agitation. For detection of phospho-Y307-cKIT a phosphospecific antibody and a species-specific PE-labeled secondary antibody were added. The amount of phospho-Y307-cKIT was determined in a Luminex 200 instrument measuring 100 events per well within 60 seconds.
Counts from samples treated with compounds were calculated as percent of control from solvent treated (0.3% DMSO) samples. Dose-response curves were fitted and IC50 values were determined using Genedata Screener software.

T1 sequence (P10721 544-976 V654A): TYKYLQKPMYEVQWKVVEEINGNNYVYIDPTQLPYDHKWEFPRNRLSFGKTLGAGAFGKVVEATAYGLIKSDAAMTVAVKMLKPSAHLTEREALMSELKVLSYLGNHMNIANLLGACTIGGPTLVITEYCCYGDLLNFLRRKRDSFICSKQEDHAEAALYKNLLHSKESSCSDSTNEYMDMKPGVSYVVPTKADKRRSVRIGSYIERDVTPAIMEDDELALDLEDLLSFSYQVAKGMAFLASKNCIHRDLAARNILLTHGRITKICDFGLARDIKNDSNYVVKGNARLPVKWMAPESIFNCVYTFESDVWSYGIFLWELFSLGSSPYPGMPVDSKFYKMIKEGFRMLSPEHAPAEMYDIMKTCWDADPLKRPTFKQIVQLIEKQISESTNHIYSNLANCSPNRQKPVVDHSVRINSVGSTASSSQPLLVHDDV

c1ccn2c(-c3cc(NCc4ccc(-n5ccnc5)cc4)ncn3)cnc2c1 [A8, (6-Imidazo[1,2-a]23yridine-3-yl-pyrimidin-4-yl)-(4-imidazol-1-yl-benzyl)-amine]
IC50 (c-Kit(V654A)): 0.023 µM | IC50 [1]: 0.5 µM | solubility at 120 min [2]: ≥ 25 µM | efflux ratio at 2 h, 1 μM [3]: < 15

COc1ccn2c(-c3cc(NCc4ccc(N5CCCCC5=O)cc4)ncn3)cnc2c1 [A12, 1-(4-{[(6-{7-methoxyimidazo[1,2-a]24yridine-3-yl}pyrimidin-4-yl)amino]methyl}phenyl)piperidin-2-one]
IC50 (c-Kit(V654A)): 0.087 µM | IC50 [1]: 1.1 µM | solubility at 120 min [2]: ≥ 25 µM

c1ccn2c(-c3cc(NCc4ccc(C5=NCCN5)cc4)ncn3)cnc2c1 [A15, [4-(4,5-Dihydro-1H-imidazol-2-yl)-benzyl]-(6-imidazo[1,2-a]pyridin-3-yl-pyrimidin-4-yl)-amine]
IC50 (c-Kit(V654A)): 0.32 µM | solubility at 120 min [2]: ≥ 25 µM

Cn1cc(-c2ccc(CNc3cc(-c4cnc5cc(OCCN6CCCC6)ccn45)ncn3)cc2)cn1 [A60, [4-(1-methyl-1H-pyrazol-4-yl)-benzyl]-{6-[7-(2-pyrrolidin-1-yl-ethoxy)-imidazo[1,2-a]pyridin-3-yl]-pyrimidin-4-yl}-amine]
IC50 (c-Kit(V654A)): 0.008 µM | IC50 [1]: 0.07 µM | IC50 [4]: 0.0049 µM | solubility at 120 min [2]: ≥ 25 µM | efflux ratio at 2 h, 1 μM [3]: < 15

Cn1ncc(-c2ccc(CNc3cc(-c4cnc5cc(OCCN6CCCC6)ccn45)ncn3)cc2)n1 [A73, [4-(2-methyl-2H-[1,2,3]triazol-4-yl)-benzyl]-{6-[7-(2-pyrrolidin-1-yl-ethoxy)-imidazo[1,2-a]pyridin-3-yl]-pyrimidin-4-yl}-amine]
IC50 (c-Kit(V654A)): 0.004 µM | IC50 [1]: 0.098 µM | solubility at 120 min [2]: ≥ 25 µM | efflux ratio at 2 h, 1 μM [3]: < 15

Cn1cc(-c2ccc(CNc3cc(-c4cnc5cc(OCCCN6CCCC6)ccn45)ncn3)cc2)cn1 [A75, [4-(1-methyl-1H-pyrazol-4-yl)-benzyl]-{6-[7-(3-pyrrolidin-1-yl-propoxy)-imidazo[1,2-a]pyridin-3-yl]-pyrimidin-4-yl}-amine]
IC50 (c-Kit(V654A)): 0.0085 µM | IC50 [1]: 0.059 µM | IC50 [4]: 0.0029 µM | solubility at 120 min [2]: ≥ 25 µM | efflux ratio at 2 h, 1 μM [3]: < 15

c1cn(-c2ccc(CNc3cc(-c4cnc5cc(OCC6CCN(C7COC7)CC6)ccn45)ncn3)cc2)nn1 [A83, {6-[7-(1-oxetan-3-yl-piperidin-4-ylmethoxy)-imidazo[1,2-a]pyridin-3-yl]-pyrimidin-4-yl}-(4-[1,2,3]triazol-1-yl-benzyl)-amine]
IC50 (c-Kit(V654A)): 0.025 µM | IC50 [1]: 0.31 µM | solubility at 120 min [2]: ≥ 25 µM

Cn1cc(-c2ccc(CNc3cc(-c4cnc5cc(OCCN6CCC6)ccn45)ncn3)cc2)cn1 [A99, 6-{7-[2-(azetidin-1-yl)ethoxy]imidazo[1,2-a]pyridin-3-yl}-N-{[4-(1-methyl-1H-pyrazol-4-yl)phenyl]methyl}pyrimidin-4-amine]
IC50 (c-Kit(V654A)): 0.0082 µM | IC50 [1]: 0.062 µM | solubility at 120 min [2]: ≥ 25 µM | efflux ratio at 2 h, 1 μM [3]: 15 to 50

Cn1ncc(-c2ccc(CNc3cc(-c4cnc5cc(OCCN6CCC6)ccn45)ncn3)cc2)n1 [A100, 6-{7-[2-(azetidin-1-yl)ethoxy]imidazo[1,2-a]pyridin-3-yl}-N-{[4-(2-methyl-2H-1,2,3-triazol-4-yl)phenyl]methyl}pyrimidin-4-amine]
IC50 (c-Kit(V654A)): 0.0092 µM | IC50 [1]: 0.038 µM | solubility at 120 min [2]: ≥ 25 µM | efflux ratio at 2 h, 1 μM [3]: < 15

c1ccn2c(-c3cc(NCc4ccc(N5CC6CC6C5)nc4)ncn3)cnc2c1 (stereo not drawn) [A149, [6-(3-aza-bicyclo[3.1.0]hex-3-yl)-pyridin-3-ylmethyl]-(6-imidazo[1,2-a]pyridin-3-yl-pyrimidin-4-yl)-amine]
IC50 (c-Kit(V654A)): 0.0062 µM | IC50 [1]: 0.27 µM | solubility at 120 min [2]: ≥ 25 µM

Cc1cc(N2CCCC2)ncc1CNc1cc(-c2cnc3ccccn23)ncn1 [A154, (6-imidazo[1,2-a]pyridin-3-yl-pyrimidin-4-yl)-(4-methyl-6-pyrrolidin-1-yl-pyridin-3-ylmethyl)-amine]
IC50 (c-Kit(V654A)): 0.18 µM | solubility at 120 min [2]: ≥ 25 µM

Cc1cc(N2CC[C@@H](F)C2)ncc1CNc1cc(-c2cnc3ccccn23)ncn1 [A156, [6-((R)-3-fluoro-pyrrolidin-1-yl)-4-methyl-pyridin-3-ylmethyl]-(6-imidazo[1,2-a]pyridin-3-yl-pyrimidin-4-yl)-amine]
IC50 (c-Kit(V654A)): 0.18 µM | solubility at 120 min [2]: ≥ 25 µM

Cn1cc(-c2ccc(CNc3cc(-c4cnc5cc(CCN6CCCC6)ccn45)ncn3)cc2)cn1 [A168, [4-(1-methyl-1H-pyrazol-4-yl)-benzyl]-{6-[7-(2-pyrrolidin-1-yl-ethyl)-imidazo[1,2-a]pyridin-3-yl]-pyrimidin-4-yl}-amine]
IC50 (c-Kit(V654A)): 0.027 µM | IC50 [1]: 0.63 µM | solubility at 120 min [2]: ≥ 25 µM | efflux ratio at 2 h, 1 μM [3]: < 15

Cn1cc(-c2ccc(CNc3cc(-c4cnc5cc(CCN6CCN(C7COC7)CC6)ccn45)ncn3)cc2)cn1 [A170, [4-(1-methyl-1H-pyrazol-4-yl)-benzyl]-(6-{7-[2-(4-oxetan-3-yl-piperazin-1-yl)-ethyl]-imidazo[1,2-a]pyridin-3-yl}-pyrimidin-4-yl)-amine]
IC50 (c-Kit(V654A)): 0.033 µM | IC50 [1]: 0.33 µM | solubility at 120 min [2]: ≥ 25 µM

Cn1cc(-c2ccc(CNc3cc(-c4cnc5cc(OCCN6CCN7CCC6C7)ccn45)ncn3)cc2)cn1 (stereo not drawn) [A212, (6-{7-[2-(1,4-diaza-bicyclo[3.2.1]oct-4-yl)-ethoxy]-imidazo[1,2-a]pyridin-3-yl}-pyrimidin-4-yl)-[4-(1-methyl-1H-pyrazol-4-yl)-benzyl]-amine]
IC50 (c-Kit(V654A)): 0.0073 µM | IC50 [1]: 0.21 µM | solubility at 120 min [2]: ≥ 25 µM | efflux ratio at 2 h, 1 μM [3]: > 50

Cc1nc(-c2ccc(CNc3cc(-c4cnc5cc(OCCCN6CCCC6)ccn45)ncn3)cc2)co1 [A242, [4-(2-methyl-oxazol-4-yl)-benzyl]-{6-[7-(3-pyrrolidin-1-yl-propoxy)-imidazo[1,2-a]pyridin-3-yl]-pyrimidin-4-yl}-amine]
IC50 (c-Kit(V654A)): 0.0011 µM | IC50 [1]: 10 µM | solubility at 120 min [2]: ≥ 25 µM | efflux ratio at 2 h, 1 μM [3]: < 15

c1nc(NCc2ccc(-c3cocn3)cc2)cc(-c2cnc3cc(OCCCN4CCCC4)ccn23)n1 [A252, (4-oxazol-4-yl-benzyl)-{6-[7-(3-pyrrolidin-1-yl-propoxy)-imidazo[1,2-a]pyridin-3-yl]-pyrimidin-4-yl}-amine]
IC50 (c-Kit(V654A)): 0.0022 µM | IC50 [1]: 0.047 µM | solubility at 120 min [2]: ≥ 25 µM | efflux ratio at 2 h, 1 μM [3]: < 15

Cn1cc(-c2ccc(CNc3cc(-c4cnc5cc(-n6cncn6)ccn45)ncn3)cc2)cn1 [A266, N-{[4-(1-methyl-1H-pyrazol-4-yl)phenyl]methyl}-6-[7-(1H-1,2,4-triazol-1-yl)imidazo[1,2-a]pyridin-3-yl]pyrimidin-4-amine]
IC50 (c-Kit(V654A)): 0.0079 µM | IC50 [1]: 0.13 µM | IC50 [4]: 0.0051 µM | efflux ratio at 2 h, 1 μM [3]: < 15

Cc1cn(-c2ccn3c(-c4cc(NCc5ccc(-c6cnn(C)c6)cc5)ncn4)cnc3c2)cn1 [A267, 6-[7-(4-methyl-1H-imidazol-1-yl)imidazo[1,2-a]pyridin-3-yl]-N-{[4-(1-methyl-1H-pyrazol-4-yl)phenyl]methyl}pyrimidin-4-amine]
IC50 (c-Kit(V654A)): 0.0044 µM | IC50 [1]: 0.063 µM | IC50 [4]: 0.0017 µM | efflux ratio at 2 h, 1 μM [3]: < 15

CNC1CN(c2ccn3c(-c4cc(NCc5ccc(-c6cnn(C)c6)cc5)ncn4)cnc3c2)C1 [A268, N-{[4-(1-methyl-1H-pyrazol-4-yl)phenyl]methyl}-6-{7-[3-(methylamino)azetidin-1-yl]imidazo[1,2-a]pyridin-3-yl}pyrimidin-4-amine]
IC50 (c-Kit(V654A)): 0.011 µM | IC50 [1]: 0.14 µM | IC50 [4]: 0.01 µM | efflux ratio at 2 h, 1 μM [3]: < 15
